Experimental data taken from ChEMBL document CHEMBL1201862, “PubChem BioAssay data set” (2004).
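Test compounds were applied to cells in 96-well plates for 48 hours at 5 doses. GI50 = concentration required for 50% inhibition of growth.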 Calls of active or inactive are those of the source. Cut-off read from the data, not from the text of the source: active = GI50 up to about 1.1 µM and inactive = higher.

Experiments:
Assay in all cases: NCI-60 cell line screen, 48 h
ACHN = tested on: ACHN
CCRF-CEM = tested on: CCRF-CEM
COLO 205 = tested on: COLO 205
DU-145 = tested on: DU-145
HL-60 = tested on: HL-60
HOP-62 = tested on: HOP-62
Hs-578T = tested on: Hs-578T
NCI/ADR-RES = tested on: NCI/ADR-RES
OVCAR-4 = tested on: OVCAR-4
OVCAR-5 = tested on: OVCAR-5
PC-3 = tested on: PC-3
RXF 393 = tested on: RXF 393
SK-MEL-5 = tested on: SK-MEL-5
SN12C = tested on: SN12C
SNB-19 = tested on: SNB-19
SNB-75 = tested on: SNB-75
T47D = tested on: T47D
UACC-257 = tested on: UACC-257
UO-31 = tested on: UO-31
NCI-H460 = tested on: NCI-H460

Measured: GI50

Oc1ccc2ccccc2c1/N=N/c1ccc(Br)cc1
inactive: ACHN 89.1 µM | CCRF-CEM > 100 µM | COLO 205 > 100 µM | DU-145 > 100 µM | HL-60 > 100 µM | HOP-62 21 µM | Hs-578T 24.7 µM | NCI/ADR-RES > 100 µM | OVCAR-4 27.8 µM | OVCAR-5 63 µM | PC-3 > 100 µM | RXF 393 > 100 µM | SK-MEL-5 > 100 µM | SN12C > 100 µM | SNB-19 > 100 µM | SNB-75 95.5 µM | T47D > 100 µM | UACC-257 > 100 µM | UO-31 > 100 µM

Cc1cc2nnn(C3CCCCO3)c2cc1C (centres undefined)
inactive: ACHN > 100 µM | CCRF-CEM > 100 µM | COLO 205 > 100 µM | DU-145 > 100 µM | HOP-62 > 100 µM | Hs-578T > 100 µM | NCI-H460 > 100 µM | NCI/ADR-RES > 100 µM | OVCAR-4 > 100 µM | OVCAR-5 > 100 µM | PC-3 > 100 µM | RXF 393 > 100 µM | SK-MEL-5 > 100 µM | SN12C > 100 µM | SNB-19 > 100 µM | SNB-75 88.1 µM | T47D 95.5 µM | UACC-257 > 100 µM | UO-31 98.2 µM

CCOC(=O)NC(=S)NC(C)c1ccccc1 (centres undefined)
inactive: ACHN > 100 µM | CCRF-CEM > 100 µM | COLO 205 > 100 µM | DU-145 > 100 µM | HOP-62 > 100 µM | Hs-578T > 100 µM | NCI/ADR-RES > 100 µM | OVCAR-4 > 100 µM | OVCAR-5 > 100 µM | PC-3 > 100 µM | RXF 393 > 100 µM | SK-MEL-5 > 100 µM | SNB-19 > 100 µM | SNB-75 > 100 µM | T47D 98.6 µM | UACC-257 > 100 µM | UO-31 70.6 µM

COc1ccc(/N=N/c2ccc3oc(=O)c(C(=O)Nc4ccccc4)cc3c2)cc1
inactive: ACHN > 5.81 µM | COLO 205 > 10 µM | DU-145 > 6.85 µM | HL-60 3.16 µM | HOP-62 > 10 µM | Hs-578T > 10 µM | NCI-H460 > 10 µM | NCI/ADR-RES > 10 µM | OVCAR-4 > 10 µM | OVCAR-5 > 10 µM | PC-3 > 6.01 µM | RXF 393 > 10 µM | SK-MEL-5 > 10 µM | SN12C > 10 µM | SNB-19 > 10 µM | SNB-75 > 9.31 µM | T47D 4.5 µM | UACC-257 > 10 µM | UO-31 5.52 µM

CC(OC(C)(C)C)[C@H](NC(=O)OC(C)(C)C)C(=O)O (some centres undefined)
inactive: ACHN > 100 µM | CCRF-CEM > 100 µM | COLO 205 > 100 µM | DU-145 > 100 µM | HL-60 > 100 µM | HOP-62 > 100 µM | Hs-578T > 100 µM | NCI-H460 > 100 µM | NCI/ADR-RES > 100 µM | OVCAR-4 > 100 µM | OVCAR-5 > 100 µM | PC-3 > 100 µM | RXF 393 > 10 µM | SK-MEL-5 > 100 µM | SN12C > 100 µM | SNB-19 > 100 µM | T47D > 100 µM | UACC-257 > 100 µM | UO-31 > 100 µM

CCOC(=O)c1c(C)nc2c(c1-c1cn(-c3ccccc3)nc1-c1ccccc1)C(=O)c1ccccc1-2
inactive: CCRF-CEM > 100 µM | COLO 205 > 100 µM | DU-145 > 100 µM | HOP-62 > 100 µM | Hs-578T > 100 µM | NCI/ADR-RES > 100 µM | OVCAR-4 > 100 µM | OVCAR-5 > 100 µM | PC-3 > 100 µM | RXF 393 > 100 µM | SK-MEL-5 > 100 µM | SN12C > 100 µM | SNB-19 > 100 µM | SNB-75 > 100 µM | T47D > 100 µM | UACC-257 > 100 µM

CCN(CC)C(=S)Oc1cc2oc(=O)cc(C)c2cc1Cl
inactive: ACHN > 100 µM | CCRF-CEM > 100 µM | COLO 205 > 100 µM | DU-145 > 100 µM | HL-60 > 100 µM | HOP-62 54 µM | Hs-578T 57.7 µM | NCI-H460 > 100 µM | NCI/ADR-RES > 100 µM | OVCAR-4 > 100 µM | OVCAR-5 > 100 µM | PC-3 > 100 µM | RXF 393 25.5 µM | SK-MEL-5 > 100 µM | SN12C > 100 µM | SNB-19 66.5 µM | T47D 54 µM | UACC-257 > 100 µM | UO-31 > 100 µM

NC(=O)N=C(N(Cc1ccccc1)Cc1ccccc1)N(Cc1ccccc1)Cc1ccccc1
inactive: ACHN > 24.4 µM | CCRF-CEM > 100 µM | DU-145 > 100 µM | HOP-62 15.3 µM | Hs-578T 97.5 µM | NCI/ADR-RES > 100 µM | OVCAR-4 6.22 µM | OVCAR-5 > 100 µM | PC-3 4.17 µM | RXF 393 > 100 µM | SK-MEL-5 > 20.3 µM | SN12C 6.08 µM | SNB-19 > 43.9 µM | SNB-75 13.3 µM | T47D > 100 µM | UO-31 > 100 µM
